In patent US9409952B2, “Peptide-compound cyclization method” (Chugai Seiyaku Kabushiki Kaisha, priority 2011, dated 2016):
Starred links: 1 amine or outer side, 2 acyl side, 3 side chain; linkers in the order of their positions; H or OH if unused. Positions of bridges follow the written chain, without caps; N, C: chain ends. Non-standard residues stand in square brackets, D forms with d. Residues, ends and D or L forms follow the SMILES beside them. *: point of attachment. NMeF = CN[C@@H](Cc1ccccc1)C(=O)O; NMeGABA = CN(CCCC(=O)[*:2])[*:1]; NMeβAla = CN(CCC(=O)[*:2])[*:1]; NMeL = CN[C@@H](CC(C)C)C(=O)O; NMeV = CN[C@H](C(=O)O)C(C)C; NMeA = CN[C@@H](C)C(=O)O; Piperidide = C1CCN(*)CC1; dNMeA = CN[C@H](C)C(=O)O; Sar = CNCC(=O)O; tBu = CC(C)(C)*

Key:
[1] = PAMPA (parallel artificial membrane permeability assay); type: in vitro ADME; conditions: membrane permeation rate (Pe), 50 mM MOPSO buffer pH 6.5 with 5.0% glycocholic acid, 37° C., 18 hours; for Papp at 18 hours, 50 µM: PAMPA, read-out: iPAMPA Pe
How it was run: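 Artificial membrane was 10% (w/v) egg lecithin plus 0.5% (w/v) cholesterol in dodecane on a PVDF filter. A 10 mM DMSO stock was added at 0.5% (v/v) to donor buffer (50 mM MOPSO, pH 6.5, 5.0% glycocholic acid). After 18 h at 37 °C, LC/MS or LC/UV gave donor and acceptor levels for Pe.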

[2] = Metabolic stability in human hepatic microsome; type: in vitro ADME; conditions: microsomes, pH 7.4; human hepatic microsome, NADPH(+); read-out: CL NADPH(+)

Row | SMILES | Papp at 18 hours, 50 µM [1] | microsomal CLint at 1 uM [2] | iPAMPA Pe [1]
1 | CC(C)[C@@H]1NC(=O)[C@H](Cc2ccccc2)N(C)C(=O)[C@H](C)N(C)C(=O)[C@H]([C@@H](C)O)NC(=O)[C@H](C)N(C)C(=O)CNC(=O)[C@H](Cc2ccccc2)NC(=O)[C@@H](C)N(C)C(=O)C[C@@H](C(=O)N(C)[C@@H](Cc2ccccc2)C(=O)N(C)[C@@H](Cc2ccccc2)C(=O)N[C@@H](C)C(=O)N2CCCCC2)NC(=O)[C@H](C(C)C)N(C)C1=O [DP-504] ([dNMeA]FG[NMeA]T[NMeA][NMeF]V[NMeV]D[NMeF][NMeF]A-Piperidide; lactam N-10) | 31 ×10⁻⁶ cm/s | 216 µL/min/mg | –
2 | CC(C)[C@@H]1NC(=O)[C@H](C)N(C)C(=O)CNC(=O)[C@H]([C@@H](C)O)NC(=O)[C@H](C(C)C)N(C)C(=O)[C@H](C)NC(=O)[C@@H](C)N(C)C(=O)C[C@@H](C(=O)N(C)[C@@H](Cc2ccccc2)C(=O)N(C)[C@@H](Cc2ccccc2)C(=O)N[C@@H](C)C(=O)N2CCCCC2)NC(=O)[C@H](Cc2ccccc2)N(C)C(=O)[C@H](C)N(C)C1=O [DP-505] ([dNMeA]A[NMeV]TG[NMeA]V[NMeA][NMeF]D[NMeF][NMeF]A-Piperidide; lactam N-10) | 6.8 ×10⁻⁶ cm/s | 18 µL/min/mg | –
3 | CC[C@H](C)[C@@H]1NC(=O)[C@H](C)N(C)C(=O)[C@H](C)N(C)C(=O)[C@H]([C@@H](C)O)NC(=O)CN(C)C(=O)[C@H](C(C)C)N(C)C(=O)[C@H](CC(C)C)N(C)C(=O)[C@H](Cc2ccccc2)NC(=O)[C@@H](C)N(C)C(=O)C[C@@H](C(=O)N(C)[C@@H](Cc2ccccc2)C(=O)N(C)[C@@H](Cc2ccccc2)C(=O)N[C@@H](C)C(=O)N2CCCCC2)NC1=O [DP-506] ([dNMeA]F[NMeL][NMeV][Sar]T[NMeA][NMeA]ID[NMeF][NMeF]A-Piperidide; lactam N-10) | 20 ×10⁻⁶ cm/s | 14 µL/min/mg | –
4 | CC(C)C[C@H]1C(=O)N(C)[C@@H](C)C(=O)N(C)[C@@H](C(C)C)C(=O)N[C@@H](C)C(=O)N[C@H](C(=O)N(C)[C@@H](Cc2ccccc2)C(=O)N(C)[C@@H](Cc2ccccc2)C(=O)N[C@@H](C)C(=O)N2CCCCC2)CC(=O)N(C)[C@H](C)C(=O)N(C)CC(=O)N[C@@H]([C@@H](C)O)C(=O)N(C)[C@@H](C)C(=O)N[C@@H](Cc2ccccc2)C(=O)N1C [DP-507] ([dNMeA][Sar]T[NMeA]F[NMeL][NMeA][NMeV]AD[NMeF][NMeF]A-Piperidide; lactam N-10) | 11 ×10⁻⁶ cm/s | 17 µL/min/mg | –
5 | CC[C@H](C)[C@@H]1NC(=O)[C@H](C)N(C)C(=O)[C@H]([C@@H](C)O)NC(=O)CN(C)C(=O)[C@H](C)N(C)C(=O)[C@H](C)NC(=O)[C@H](C)N(C)C(=O)[C@@H](C)N(C)C(=O)C[C@@H](C(=O)N(C)[C@@H](Cc2ccccc2)C(=O)N(C)[C@@H](Cc2ccccc2)C(=O)N[C@@H](C)C(=O)N2CCCCC2)NC(=O)[C@H](Cc2ccccc2)N(C)C1=O [DP-508] ([dNMeA][NMeA]A[NMeA][Sar]T[NMeA]I[NMeF]D[NMeF][NMeF]A-Piperidide; lactam N-10) | 2.5 ×10⁻⁶ cm/s | 11 µL/min/mg | –
6 | CC(C)[C@@H]1NC(=O)[C@H](C)N(C)C(=O)[C@@H](C)N(C)C(=O)C[C@@H](C(=O)N(C)[C@@H](Cc2ccccc2)C(=O)N(C)[C@@H](Cc2ccccc2)C(=O)N[C@@H](C)C(=O)N2CCCCC2)NC(=O)[C@H](C)N(C)C(=O)[C@H](C)N(C)C(=O)[C@H]([C@@H](C)O)NC(=O)[C@H](C)N(C)C(=O)[C@H](Cc2ccccc2)N(C)C(=O)[C@H](C)N(C)C1=O [DP-509] ([dNMeA][NMeA]V[NMeA][NMeF][NMeA]T[NMeA][NMeA]D[NMeF][NMeF]A-Piperidide; lactam N-10) | 5.1 ×10⁻⁶ cm/s | 30 µL/min/mg | –
7 | CC(C)C[C@H]1C(=O)N[C@@H](C(C)C)C(=O)N(C)[C@@H](C)C(=O)N[C@@H]([C@@H](C)O)C(=O)N(C)[C@@H](C)C(=O)N[C@H](C(=O)N2CCCCC2)CC(=O)N(C)CCC(=O)N(C)[C@@H](C)C(=O)N(C)[C@@H](Cc2ccccc2)C(=O)N[C@@H](C)C(=O)N(C)[C@@H](CC(C)C)C(=O)N(C)CC(=O)N1C [DP-511] ([NMeβAla][NMeA][NMeF]A[NMeL][Sar][NMeL]V[NMeA]T[NMeA]D-Piperidide; lactam N-12) | 1.1 ×10⁻⁶ cm/s | 15 µL/min/mg | –
8 | CC[C@H](C)[C@@H]1NC(=O)[C@H](CC(C)C)N(C)C(=O)CN(C)C(=O)[C@H]([C@@H](C)O)NC(=O)[C@@H](C)N(C)C(=O)C[C@@H](C(=O)N2CCCCC2)NC(=O)[C@H](CC(C)C)N(C)C(=O)[C@H](Cc2ccccc2)N(C)C(=O)[C@H](CC(C)C)N(C)C1=O [DP-512] ([dNMeA]T[Sar][NMeL]I[NMeL][NMeF][NMeL]D-Piperidide; lactam N-9) | 18 ×10⁻⁶ cm/s | 62 µL/min/mg | –
9 | CC[C@H](C)[C@@H]1NC(=O)[C@H](Cc2ccccc2)NC(=O)[C@H](CC(C)C)NC(=O)[C@H](CC(C)C)NC(=O)[C@H](C)NC(=O)C[C@@H](C(=O)N2CCCCC2)NC(=O)[C@H](CC(C)C)N(C)C(=O)[C@H](Cc2ccccc2)NC(=O)[C@H](CC(C)C)NC(=O)CNC(=O)[C@H]([C@@H](C)O)NC1=O [DP-513] (ALLFITGLF[NMeL]D-Piperidide; lactam N-11) | 30 ×10⁻⁶ cm/s | 184 µL/min/mg | –
10 | CC(C)C[C@@H]1NC(=O)[C@H](C)NC(=O)[C@H]([C@@H](C)O)NC(=O)[C@H](CC(C)C)NC(=O)[C@H](CC(C)C)NC(=O)[C@H](C(C)C)NC(=O)CCN(C)C(=O)C[C@@H](C(=O)N2CCCCC2)NC(=O)[C@H](CC(C)C)NC(=O)[C@H](Cc2ccccc2)NC(=O)[C@H](CC(C)C)NC1=O [DP-514] ([NMeβAla]VLLTALLFLD-Piperidide; lactam N-11) | 6.8 ×10⁻⁶ cm/s | 103 µL/min/mg | –
11 | CC[C@H](C)[C@@H]1NC(=O)[C@H](Cc2ccccc2)NC(=O)[C@H](CC(C)C)NC(=O)[C@@H](C)NC(=O)C[C@@H](C(=O)N2CCCCC2)NC(=O)[C@H](Cc2ccccc2)NC(=O)[C@H](CC(C)C)NC(=O)[C@H]([C@@H](C)O)NC(=O)[C@H](Cc2ccccc2)NC(=O)[C@H](CC(C)C)NC1=O [DP-515] ([dA]LFILFTLFD-Piperidide; lactam N-10) | – | 23 µL/min/mg | 1.0E−07
12 | CC[C@H](C)[C@@H]1NC(=O)[C@H](CC(C)C)N(C)C(=O)[C@H](Cc2ccccc2)N(C)C(=O)CN(C)C(=O)[C@H](C)N(C)C(=O)[C@H](Cc2ccccc2)N(C)C(=O)[C@H](C)N(C)C(=O)[C@H]([C@@H](C)O)NC(=O)[C@H](C(C)C)N(C)C(=O)CCN(C)C(=O)C[C@@H](C(=O)N2CCCCC2)NC1=O [DP-516] ([NMeβAla][NMeV]T[NMeA][NMeF][NMeA][Sar][NMeF][NMeL]ID-Piperidide; lactam N-11) | 9.1 ×10⁻⁶ cm/s | 19 µL/min/mg | –
13 | CC(C)C[C@@H]1NC(=O)[C@H](CC(C)C)N(C)C(=O)[C@H](C)N(C)C(=O)C[C@@H](C(=O)N2CCCCC2)NC(=O)[C@H](CC(C)C)N(C)C(=O)[C@H](Cc2ccccc2)N(C)C(=O)[C@H](C)N(C)C(=O)[C@H]([C@@H](C)O)NC(=O)[C@H](Cc2ccccc2)N(C)C1=O [DP-520] ([NMeA][NMeL]L[NMeF]T[NMeA][NMeF][NMeL]D-Piperidide; lactam N-9) | 29 ×10⁻⁶ cm/s | 130 µL/min/mg | –
14 | CC(C)C[C@H]1C(=O)N(C)[C@@H](Cc2ccccc2)C(=O)N[C@H](C(=O)N2CCCCC2)CC(=O)N(C)CC(=O)N[C@@H]([C@@H](C)O)C(=O)N(C)[C@@H](C)C(=O)N[C@@H](COC(C)(C)C)C(=O)N(C)[C@@H](Cc2ccccc2)C(=O)N1C [DP-521] ([Sar]T[NMeA]S(tBu)[NMeF][NMeL][NMeF]D-Piperidide; lactam N-8) | 44 ×10⁻⁶ cm/s | 125 µL/min/mg | –
15 | CC(C)C[C@H]1C(=O)NCC(=O)N[C@H](C(=O)N2CCCCC2)CC(=O)N(C)CCC(=O)N[C@@H]([C@@H](C)O)C(=O)N(C)[C@@H](C)C(=O)N[C@@H](COC(C)(C)C)C(=O)N(C)[C@@H](Cc2ccccc2)C(=O)N1C [DP-522] ([NMeβAla]T[NMeA]S(tBu)[NMeF][NMeL]GD-Piperidide; lactam N-8) | 5.3 ×10⁻⁶ cm/s | 87 µL/min/mg | –
16 | CC(C)C[C@H]1C(=O)N[C@@H](COC(C)(C)C)C(=O)N[C@H](C(=O)N2CCCCC2)CC(=O)N(C)[C@@H](C)C(=O)N(C)[C@@H](Cc2ccccc2)C(=O)N(C)[C@@H](CC(C)C)C(=O)N[C@@H]([C@@H](C)O)C(=O)N(C)CC(=O)N1C [DP-523] ([NMeA][NMeF][NMeL]T[Sar][NMeL]S(tBu)D-Piperidide; lactam N-8) | 20 ×10⁻⁶ cm/s | 99 µL/min/mg | –
17 | CC(C)C[C@H]1C(=O)N[C@@H]([C@@H](C)O)C(=O)N(C)[C@@H](C)C(=O)N(C)[C@@H](CC(C)C)C(=O)N(C)[C@@H](Cc2ccccc2)C(=O)N[C@H](C(=O)N2CCCCC2)CC(=O)N(C)CCCC(=O)N(C)[C@@H](C)C(=O)N1C [DP-524] ([NMeGABA][NMeA][NMeL]T[NMeA][NMeL][NMeF]D-Piperidide; lactam N-8) | 16 ×10⁻⁶ cm/s | 162 µL/min/mg | –
18 | CC(C)C[C@H]1C(=O)N(C)[C@@H](CC(C)C)C(=O)N[C@H](C(=O)N2CCCCC2)CC(=O)N(C)CCCC(=O)N(C)[C@@H](Cc2ccccc2)C(=O)N[C@@H]([C@@H](C)O)C(=O)N(C)CC(=O)N[C@@H](COC(C)(C)C)C(=O)N1C [DP-525] ([NMeGABA][NMeF]T[Sar]S(tBu)[NMeL][NMeL]D-Piperidide; lactam N-8) | 22 ×10⁻⁶ cm/s | 86 µL/min/mg | –
19 | CC(C)C[C@H]1C(=O)N(C)[C@@H](Cc2ccccc2)C(=O)N[C@H](C(=O)N2CCCCC2)CC(=O)N[C@H](C(C)C)C(=O)N[C@@H](C)C(=O)N[C@@H]([C@@H](C)O)C(=O)N(C)[C@@H](C)C(=O)N[C@@H](Cc2ccccc2)C(=O)N1C [DP-526] ([dV]AT[NMeA]F[NMeL][NMeF]D-Piperidide; lactam N-8) | 14 ×10⁻⁶ cm/s | 49 µL/min/mg | –
